Results on 9 compounds are retold here after PubChem BioAssay AID1918938 (Molecular Pharmacology Branch, DTP, NCI, 2023).

The subject of the assay is 556581-035-R-J1-PDC complex spheroid viability. Put plainly: Anticancer human tumor 556581-035-R-J1-PDC patient-derived ovarian carcinoma cell line growth inhibition. As to conditions: for viability, T/C: stronger effect = lower value; for IC50: curve of compound. An excerpt: Multicellular complex tumor spheroid response to LSD1 Inhibitor Iadademstat in combination with a variety of drugs and investigational agents in selected tumor cell lines
The current study was undertaken to assess response to LSD1 inhibitors in combination with standard-of-care drugs and investigational agents in solid tumor complex spheroid models as well as in the K-562 leukemia. Complex spheroids include a stromal component modeled by human endothelial cells (HUVEC) and fibroblasts modeled by human mesenchymal stem cells (MSCs). The concentration ranges selected for each drug and investigational agent were based upon clinically achievable concentrations if the clinical Cmax of the agent was known.
Compounds. The drugs and investigational agents used in this study are listed on Table 1. All of the agents used, including staurosporine (NSC755774) and gemcitabine (NSC613327), were obtained from the Developmental Therapeutics Program, NCI. FDA-approved anticancer drugs are available from the NCI at http://dtp.nci.nih.gov/branches/dscb/oncology_drugset_explanation.html. Drugs and investigational agents were >95% pure by proton nuclear magnetic resonance (NMR) and liquid chromatography/mass spectrometry (LC/MS). Stock solutions were prepared at 400x in DMSO, stored at -70 degrees C, and diluted in fresh medium prior to their use. The final concentration of DMSO in cell culture wells never exceeded 0.25% (v/v). The FDA-approved anticancer drug set is available from the Developmental Therapeutics Program at https://dtp.cancer.gov/organization/dscb/obtaining/available_plates.htm. All drugs and investigational agents were tested over a range starting from a high concentration at or near the clinical Cmax and decreasing in half-log increments. If the clinical Cmax for an agent had not been determined, the highest concentration tested was 10 microM.
Cell Lines. The patient-derived cancer cell (PDC) lines: 292921-168-R-J2-PDC, K24384-001-R-PDC, and 521955-158-R2-J5-PDC pancreatic carcinomas, 556581-035-R-J1 ovarian carcinoma, 324938-238-R-J1-PDC, 855422-203-R-J1-PDC and 883617-216-R-J1-PDC urothelial bladder carcinomas, 743489-274-T-PDC renal cell carcinoma, 138582-R-J1 Merkel cell tumor, K60290-347-R-J1 and K57222-313-R-J1-PDC glioblastomas, 653999-131-R-J2-PDC, LG0703-F948-PDC, and 349418-098-R-PDC non-small cell lung carcinomas, 885512-296-R-J2-PDC, 171881-019-R-J1-PDC breast carcinomas and 186277-243-T-J2-PDC and 233499-124-R-J2-PDC colon carcinomas were obtained from the NCI Patient-Derived Models Repository (PDMR, https://pdmr.cancer.gov). The established cell lines NCI/ADR-RES (RRID:CVCL_14520 and OVCAR-5 (RRID:CVCL_1628) ovarian carcinomas, 786-O (RRID:CVCL_1051) and A498 (RRID:CVCL_A498) renal cell carcinoma, NCI-H211 (ATCC, cat. CRL-5824; RRID:CVCL_1529), NCI-H196 (ATCC, cat. CRL-5823, RRID:CVCL_1509), SW 1271 (ATCC, cat. CRL-2177, RRID:CVCL_1716) and NCI-H1876 (ATCC, cat. CRL-5902, RRID:CVCL_1503) small cell lung carcinomas, MDA-MB-231 (RRID:CVCL_0062) and MDA-MB-468 (RRID:CVCL_0419)breast carcinomas (10-12). Pooled donor human umbilical vein endothelial cells (HUVEC, Lonza, cat. CC-2519) and human mesenchymal stem cells (hMSC, Lonza, cat. PT-2501) were purchased from Lonza (Walkersville, MD).
Cell Culture. All cells were maintained in an incubator at 37 degrees C and 5% CO2 with 95% humidity. The PDC lines were cultured according to standard operating procedures established by the NCI PDMR (https://pdmr.cancer.gov). Briefly all PDCs were thawed and cultured in Matrigel-coated flasks prepared with a working solution of 1X Ham's F-12 nutrient mix, without supplementation (Invitrogen, Waltham, MA, cat. 11765054), 100 U/mL penicillin-streptomycin (Invitrogen, cat. 15140122), and 2.5% Matrigel (Corning Inc., Corning, NY, cat. 354248) for the first three passages. […]

The term viability, T/C denotes the ratio of treated to control. A word on the IC50: it is the concentration needed to halve the response being measured.

Values joined by “and” are separate entries in the source; they are usually repeats but may differ in a detail not shown here. Identical values can stand only once.
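Further: spheroids exposed to agents for seven days.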

In the case of `CC(C)CC(NC(=O)C(Cc1ccccc1)NC(=O)c1cnccn1)B(O)O` (configuration not stated), the IC50 is below 0.316 nM. Besides, the viability, T/C (compound 0.000316 µM) was 7.73% and 2.05%. Besides, the viability, T/C (compound 0.001 µM) is 0.26% and 0.43%. Besides, the viability, T/C (compound 0.00316 µM) was 1.04% and 0.46%. The viability, T/C (compound 0.01 µM) is 0.22% and 0.28%. In addition, under “compound 0.0316 µM”, the viability, T/C was 0.85% and 0.24%. Under “compound 0.1 µM”, the viability, T/C is 0.44% and 0.39%.

For `CC(C)CC(NC(=O)CNC(=O)c1cc(Cl)ccc1Cl)B1OC(=O)CC(CC(=O)O)(C(=O)O)O1` (configuration not stated), the IC50 is 4.06 nM and 2.91 nM. Also, the viability, T/C (compound 0.000316 µM) was 99.8% and 102%. Further, the viability, T/C (compound 0.001 µM) is 98.2% and 102%. Besides, the viability, T/C (compound 0.00316 µM) is 63.3% and 46%. In addition, the viability, T/C (compound 0.01 µM) was 2.06% and 2.7%. The viability, T/C (compound 0.0316 µM) is 0.74% and 1.23%. Further, under “compound 0.1 µM”, the viability, T/C is 0.66% and 0.61%.

Turning to `CC1(C)CCC(CN2CCN(c3ccc(C(=O)NS(=O)(=O)c4ccc(NCC5CCOCC5)c([N+](=O)[O-])c4)c(Oc4cnc5[nH]ccc5c4)c3)CC2)=C(c2ccc(Cl)cc2)C1`, the IC50 is 4470 nM and 5040 nM. For the setting “compound 0.0316 µM”, the viability, T/C is 97.5% and 84.5%. Moreover, the viability, T/C (compound 0.1 µM) was 95.1% and 89.4%. For the same compound, the viability, T/C (compound 0.316 µM) was 85.2% and 79.3%. The viability, T/C (compound 1 µM) is 81% and 90.1%. For the same compound, the viability, T/C (compound 3.16 µM) was 68.8% and 79.1%. In addition, the viability, T/C (compound 10 µM) is 13.5% and 7.08%.

With `CC1COCCN1c1cc(-c2ccnn2C)c2ccnc(-c3ccn[nH]3)c2n1` (configuration not stated), the IC50 is 52.9 nM and 8.58 nM. For the same compound, the viability, T/C (compound 0.00316 µM) is 70% and 55.8%. Besides, the viability, T/C (compound 0.01 µM) is 65.8% and 55.1%. Moreover, where the note is “compound 0.0316 µM”, the viability, T/C was 51.8% and 34.4%. The viability, T/C (compound 0.1 µM) is 42.8% and 25.6%. Also, the viability, T/C (compound 0.316 µM) was 36.3% and 26.9%. For the same compound, the viability, T/C (compound 1 µM) is 14.7% and 9.75%.

Take `CCN(c1cc(-c2ccc(CN3CCOCC3)cc2)cc(C(=O)NCc2c(C)cc(C)[nH]c2=O)c1C)C1CCOCC1`: the IC50 was 2010 nM and 895 nM. Besides, the viability, T/C (compound 0.00949 µM) is 101% and 102%. Further, the viability, T/C (compound 0.03 µM) is 105% and 88.1%. The viability, T/C (compound 0.0949 µM) was 87.8% and 88.1%. Further, under “compound 0.3 µM”, the viability, T/C was 81.4% and 79.2%. For the same compound, the viability, T/C (compound 0.949 µM) was 60.2% and 46.9%. For the same compound, the viability, T/C (compound 3 µM) was 44.3% and 24.2%.

As for `CC[C@@]1(O)C(=O)OCc2c1cc1n(c2=O)Cc2cc3c(CN(C)C)c(O)ccc3nc2-1`, the IC50 is 15.2 nM and 6.17 nM. For the setting “compound 0.000316 µM”, the viability, T/C was 95.5% and 101%. The viability, T/C (compound 0.001 µM) was 96.8% and 101%. In addition, the viability, T/C (compound 0.00316 µM) was 78.7% and 73.8%. In addition, where the note is “compound 0.01 µM”, the viability, T/C was 57.1% and 32.2%. The viability, T/C (compound 0.0316 µM) is 35.8% and 14%. Further, where the note is “compound 0.1 µM”, the viability, T/C was 10% and 7.12%.

For `CCc1c2c(nc3ccc(O)cc13)-c1cc3c(c(=O)n1C2)COC(=O)[C@]3(O)CC`, the IC50 is below 0.949 nM. Besides, the viability, T/C (compound 0.000949 µM) was 17.5% and 12%. Also, under “compound 0.003 µM”, the viability, T/C is 11.2% and 9.45%. For the same compound, the viability, T/C (compound 0.00949 µM) was 2.19% and 1.59%. Besides, the viability, T/C (compound 0.03 µM) is 0.61% and 0.44%. For the same compound, the viability, T/C (compound 0.0949 µM) was 0.29% and 0.42%. Moreover, the viability, T/C (compound 0.3 µM) was 0.34% and 0.39%.

With `COc1cc(C2c3cc4c(cc3C(OC3OC5COC(C)OC5C(O)C3O)C3COC(=O)C23)OCO4)cc(OC)c1O` (configuration not stated), the IC50 was 620 nM and 176 nM. Moreover, the viability, T/C (compound 0.00949 µM) was 89% and 94.3%. Also, the viability, T/C (compound 0.03 µM) was 82.8% and 76.5%. For the setting “compound 0.0949 µM”, the viability, T/C is 70% and 56.9%. In addition, the viability, T/C (compound 0.3 µM) is 65.7% and 40.6%. Moreover, the viability, T/C (compound 0.949 µM) is 41.2% and 33.2%. Moreover, the viability, T/C (compound 3 µM) is 23.5% and 15.7%.

As for `COc1cc(Nc2ncc3c(n2)-c2ccc(Cl)cc2C(c2c(F)cccc2OC)=NC3)ccc1C(=O)O`, the viability, T/C runs as follows: (compound 0.00316 µM) 68.5% and 68.6%; (compound 0.01 µM) 67.9% and 49.6%; (compound 0.0316 µM) 78.5% and 43.2%; (compound 0.1 µM) 60.9% and 45.6%; (compound 0.316 µM) 51.1% and 41.2%; (compound 1 µM) 39.2% and 29.9%.
